Common to all, as to test: biochemical
The target in test [1] is T1, panel of 374 wild-type kinases (Homo sapiens, UniProt O75582).
T1 construct: purchased Reaction Biology Corporation
To be noted: read-out: % Enzyme Activity (relative to DMSO controls), MSK1/RPS6KA5.

The target in test [2] is T2, panel of 374 wild-type kinases (Homo sapiens, UniProt P51955).
T2 construct: purchased Reaction Biology Corporation
T2 sequence (P51955 1-445): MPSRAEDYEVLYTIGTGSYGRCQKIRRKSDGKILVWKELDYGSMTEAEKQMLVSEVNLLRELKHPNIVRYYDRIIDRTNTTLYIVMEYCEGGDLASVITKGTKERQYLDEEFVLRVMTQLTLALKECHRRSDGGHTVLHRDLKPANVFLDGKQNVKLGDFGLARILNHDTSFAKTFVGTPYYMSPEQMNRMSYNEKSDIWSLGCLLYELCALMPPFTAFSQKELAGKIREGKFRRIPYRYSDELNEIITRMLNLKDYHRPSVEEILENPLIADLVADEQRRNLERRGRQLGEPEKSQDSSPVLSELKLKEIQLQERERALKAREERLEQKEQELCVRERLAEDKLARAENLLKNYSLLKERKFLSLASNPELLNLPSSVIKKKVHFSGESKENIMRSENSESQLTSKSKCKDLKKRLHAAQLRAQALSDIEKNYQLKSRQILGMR
Particulars: read-out: % Enzyme Activity (relative to DMSO controls), NEK2.

Test [3] addresses T3, panel of 374 wild-type kinases (Homo sapiens, UniProt P78368).
T3 construct: purchased Reaction Biology Corporation
To be noted: read-out: % Enzyme Activity (relative to DMSO controls), CK1g2.

Test [4] addresses T4, panel of 374 wild-type kinases (Homo sapiens, UniProt Q02779).
T4 construct: purchased Reaction Biology Corporation
Particulars: read-out: % Enzyme Activity (relative to DMSO controls), MLK2/MAP3K10.

In test [5] the target is T5, panel of 374 wild-type kinases (Homo sapiens, UniProt Q8NG66).
T5 construct: purchased Reaction Biology Corporation
T5 sequence (Q8NG66 1-645): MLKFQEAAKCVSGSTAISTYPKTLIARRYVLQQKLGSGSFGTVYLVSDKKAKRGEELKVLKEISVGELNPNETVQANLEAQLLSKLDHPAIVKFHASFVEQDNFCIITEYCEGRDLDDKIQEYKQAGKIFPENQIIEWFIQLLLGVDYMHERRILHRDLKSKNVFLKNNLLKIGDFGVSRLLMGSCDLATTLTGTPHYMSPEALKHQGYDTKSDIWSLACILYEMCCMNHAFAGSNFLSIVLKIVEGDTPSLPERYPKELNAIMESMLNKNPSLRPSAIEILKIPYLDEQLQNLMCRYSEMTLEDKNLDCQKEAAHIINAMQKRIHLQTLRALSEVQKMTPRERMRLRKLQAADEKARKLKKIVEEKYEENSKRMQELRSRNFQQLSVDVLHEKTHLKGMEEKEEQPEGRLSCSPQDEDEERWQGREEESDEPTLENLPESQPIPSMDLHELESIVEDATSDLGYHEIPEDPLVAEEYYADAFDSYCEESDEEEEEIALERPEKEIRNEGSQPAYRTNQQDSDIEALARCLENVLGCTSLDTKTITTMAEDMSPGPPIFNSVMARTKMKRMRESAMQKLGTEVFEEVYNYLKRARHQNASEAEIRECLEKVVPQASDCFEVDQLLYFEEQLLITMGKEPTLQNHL
To be noted: read-out: % Enzyme Activity (relative to DMSO controls), NEK11.

The target in test [6] is T6, panel of 374 wild-type kinases (Homo sapiens, UniProt Q96L34).
T6 construct: purchased Reaction Biology Corporation
T6 sequence (Q96L34 1-752): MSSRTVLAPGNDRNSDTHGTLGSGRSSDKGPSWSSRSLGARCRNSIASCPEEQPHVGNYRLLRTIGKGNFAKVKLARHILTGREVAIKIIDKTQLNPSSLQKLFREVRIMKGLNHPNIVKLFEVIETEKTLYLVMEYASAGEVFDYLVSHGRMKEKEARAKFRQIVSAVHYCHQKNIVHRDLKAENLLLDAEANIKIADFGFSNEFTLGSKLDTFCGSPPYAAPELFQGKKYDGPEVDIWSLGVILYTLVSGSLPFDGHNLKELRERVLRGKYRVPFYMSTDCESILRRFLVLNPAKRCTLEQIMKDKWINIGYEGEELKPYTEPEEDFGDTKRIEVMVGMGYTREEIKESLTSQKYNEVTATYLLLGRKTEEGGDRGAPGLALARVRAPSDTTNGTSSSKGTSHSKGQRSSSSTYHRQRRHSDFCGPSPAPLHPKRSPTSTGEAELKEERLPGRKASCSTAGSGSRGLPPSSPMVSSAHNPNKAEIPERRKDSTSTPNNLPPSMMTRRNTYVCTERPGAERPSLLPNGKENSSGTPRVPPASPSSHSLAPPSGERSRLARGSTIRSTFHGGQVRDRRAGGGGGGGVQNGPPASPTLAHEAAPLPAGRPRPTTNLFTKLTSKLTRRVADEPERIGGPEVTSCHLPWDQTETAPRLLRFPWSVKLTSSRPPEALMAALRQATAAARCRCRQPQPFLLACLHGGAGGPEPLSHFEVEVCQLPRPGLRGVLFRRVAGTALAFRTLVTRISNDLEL
To be noted: read-out: % Enzyme Activity (relative to DMSO controls), MARK4.

The target in test [7] is T7, panel of 374 wild-type kinases (Homo sapiens, UniProt Q99759).
T7 construct: purchased Reaction Biology Corporation
T7 sequence (Q99759 1-626): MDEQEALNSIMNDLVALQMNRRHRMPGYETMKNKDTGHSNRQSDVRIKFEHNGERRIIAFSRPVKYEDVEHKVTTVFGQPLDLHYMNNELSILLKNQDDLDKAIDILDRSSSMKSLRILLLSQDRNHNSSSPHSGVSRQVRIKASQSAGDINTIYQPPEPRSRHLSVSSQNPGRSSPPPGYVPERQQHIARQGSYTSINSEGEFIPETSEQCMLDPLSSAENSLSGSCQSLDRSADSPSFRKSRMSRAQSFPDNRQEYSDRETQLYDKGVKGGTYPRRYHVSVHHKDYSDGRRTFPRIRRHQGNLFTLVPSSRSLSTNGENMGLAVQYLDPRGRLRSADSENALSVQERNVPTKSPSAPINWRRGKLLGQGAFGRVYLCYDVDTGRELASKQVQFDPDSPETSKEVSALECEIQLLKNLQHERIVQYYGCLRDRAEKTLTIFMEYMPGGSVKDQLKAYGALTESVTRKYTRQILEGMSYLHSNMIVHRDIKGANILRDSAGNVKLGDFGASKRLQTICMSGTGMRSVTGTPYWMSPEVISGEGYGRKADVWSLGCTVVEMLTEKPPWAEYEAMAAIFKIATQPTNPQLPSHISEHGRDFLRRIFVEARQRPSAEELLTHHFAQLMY
To be noted: read-out: % Enzyme Activity (relative to DMSO controls), MEKK3.

T1 sequence (O75582 whole entry): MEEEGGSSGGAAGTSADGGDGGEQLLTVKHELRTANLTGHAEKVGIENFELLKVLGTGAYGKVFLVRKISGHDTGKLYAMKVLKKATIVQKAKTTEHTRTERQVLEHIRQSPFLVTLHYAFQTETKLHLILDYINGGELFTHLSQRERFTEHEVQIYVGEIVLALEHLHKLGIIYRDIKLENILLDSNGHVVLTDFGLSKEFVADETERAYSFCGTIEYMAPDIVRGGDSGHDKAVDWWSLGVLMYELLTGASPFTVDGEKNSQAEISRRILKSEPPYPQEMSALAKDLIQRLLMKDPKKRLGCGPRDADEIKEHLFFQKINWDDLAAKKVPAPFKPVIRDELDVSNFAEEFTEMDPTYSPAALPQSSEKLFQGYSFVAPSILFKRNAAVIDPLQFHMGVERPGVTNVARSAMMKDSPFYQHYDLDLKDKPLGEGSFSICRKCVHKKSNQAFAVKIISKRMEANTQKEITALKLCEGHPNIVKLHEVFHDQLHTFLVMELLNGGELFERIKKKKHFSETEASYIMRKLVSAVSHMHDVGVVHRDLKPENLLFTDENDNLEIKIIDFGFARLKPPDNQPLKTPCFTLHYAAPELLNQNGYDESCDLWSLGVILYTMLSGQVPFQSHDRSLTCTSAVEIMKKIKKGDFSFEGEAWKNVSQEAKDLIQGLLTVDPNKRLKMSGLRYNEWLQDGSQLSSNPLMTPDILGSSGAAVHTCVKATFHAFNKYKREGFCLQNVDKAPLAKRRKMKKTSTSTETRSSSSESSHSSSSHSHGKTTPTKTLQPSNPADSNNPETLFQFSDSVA
T4 sequence (Q02779 whole entry): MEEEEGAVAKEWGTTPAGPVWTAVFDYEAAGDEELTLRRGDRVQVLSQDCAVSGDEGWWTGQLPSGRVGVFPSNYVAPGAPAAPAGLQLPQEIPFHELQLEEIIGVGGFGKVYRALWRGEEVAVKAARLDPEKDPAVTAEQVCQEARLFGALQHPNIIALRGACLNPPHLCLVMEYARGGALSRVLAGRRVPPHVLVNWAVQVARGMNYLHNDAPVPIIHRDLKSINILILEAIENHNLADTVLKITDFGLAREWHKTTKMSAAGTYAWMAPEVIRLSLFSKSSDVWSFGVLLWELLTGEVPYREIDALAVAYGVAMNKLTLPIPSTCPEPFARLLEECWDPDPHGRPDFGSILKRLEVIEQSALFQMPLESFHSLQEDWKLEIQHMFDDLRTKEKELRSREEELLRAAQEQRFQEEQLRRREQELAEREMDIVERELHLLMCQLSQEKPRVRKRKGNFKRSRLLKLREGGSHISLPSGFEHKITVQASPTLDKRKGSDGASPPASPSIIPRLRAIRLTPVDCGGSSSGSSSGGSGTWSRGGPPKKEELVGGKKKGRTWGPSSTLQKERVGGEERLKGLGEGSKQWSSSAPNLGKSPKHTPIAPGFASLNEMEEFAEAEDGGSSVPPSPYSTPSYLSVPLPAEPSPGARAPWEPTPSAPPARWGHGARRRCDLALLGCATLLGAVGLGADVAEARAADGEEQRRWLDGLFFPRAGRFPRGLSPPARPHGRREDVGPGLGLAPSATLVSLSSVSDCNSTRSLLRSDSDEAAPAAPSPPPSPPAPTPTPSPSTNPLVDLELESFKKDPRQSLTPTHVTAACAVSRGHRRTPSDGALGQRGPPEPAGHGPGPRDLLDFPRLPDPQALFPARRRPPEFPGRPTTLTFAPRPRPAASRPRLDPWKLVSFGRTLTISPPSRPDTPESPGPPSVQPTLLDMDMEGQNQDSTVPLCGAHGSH
T3 sequence (P78368 whole entry): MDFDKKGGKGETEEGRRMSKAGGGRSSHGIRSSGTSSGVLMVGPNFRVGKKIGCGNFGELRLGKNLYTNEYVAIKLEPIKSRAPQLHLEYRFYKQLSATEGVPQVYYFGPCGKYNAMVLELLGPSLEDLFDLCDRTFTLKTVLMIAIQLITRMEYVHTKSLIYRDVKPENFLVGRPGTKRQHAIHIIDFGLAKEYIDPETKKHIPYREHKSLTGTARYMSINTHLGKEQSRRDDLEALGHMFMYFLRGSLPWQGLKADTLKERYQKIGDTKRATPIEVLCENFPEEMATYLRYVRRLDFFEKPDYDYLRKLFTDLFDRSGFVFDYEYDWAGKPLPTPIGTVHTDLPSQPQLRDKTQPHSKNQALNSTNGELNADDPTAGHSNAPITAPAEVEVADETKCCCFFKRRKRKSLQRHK

Regarding `O=C(Nc1cnn(-c2csc(C(=O)NC3COC3)c2)c1)Nc1ccccc1Cl` [Compound 17, 4-(4-(3-(2-chlorophenyl)ureido)-1H-pyrazol-1-yl)-N-(oxetan-3-yl)thiophene-2-carboxamide], the remaining activity at 5 µM in test [1] was found to be 89.5%; in test [2], 104%; in test [3], 98.5%; in test [4], 98.5%; in test [5] it was 145%; in test [6], 108%. The remaining activity at 5 µM in test [7] is 113%.
On to `O=C(Nc1cnn(-c2csc(C(=O)NC3COC3)c2)c1)Nc1c(F)cccc1Cl` [Compound 25, 4-(4-(3-(2-chloro-6-fluorophenyl)ureido)-1H-pyrazol-1-yl)-N-(oxetan-3-yl)thiophene-2-carboxamide], for which the remaining activity at 5 µM in test [1] is 104%; in test [2], 96.2%; in test [3], 90.2%; in test [4] it was 94.3%; in test [5], 89.5%; in test [6] it was 97.9%. Besides, the remaining activity at 5 µM in test [7] is 81.9%.
`Cc1sc(C(=O)NC2COC2)cc1-n1cc(NC(=O)Nc2c(F)cccc2Cl)cn1` [Compound 27, 4-(4-(3-(2-chloro-6-fluorophenyl)ureido)-1H-pyrazol-1-yl)-5-methyl-N-(oxetan-3-yl)thiophene-2-carboxamide]: the remaining activity at 10 µM in test [1] (10 uM) came out at 111%; in test [2] (10 uM) it was 88%; in test [3] (10 uM), 104%; in test [4] (10 uM) it was 90.8%; in test [5] (10 uM), 70%; in test [6] (10 uM) it was 108%. Besides, the remaining activity at 10 µM in test [7] (10 uM) came to 113%.

Source of the values: patent US20240246942A1, “KINASE INHIBITORS FOR THE TREATMENT OF NEURODEGENERATIVE DISEASES” (priority 2020, published 2024).
